Data taken from patent US8541449B2, “Substituted isoquinolines and isoquinolinones as Rho kinase inhibitors” (Sanofi, priority 2008, dated 2013).

Tests used:
Format in all cases: biochemical
[1] = molecular target: T1, human recombinant ROCK II (Homo sapiens, UniProt O75116); test: Determination of Rho kinase inhibition (Caliper peptide phosphorylation assay); conditions: 60 min at 32° C., negative decadal logarithm of the IC50
T1 construct: N-terminal His6-tagged recombinant human ROCK-II residues 11-552; His6 (N); purchased Millipore GmbH, Schwalbach, Germany
T1 sequence (O75116 11-552): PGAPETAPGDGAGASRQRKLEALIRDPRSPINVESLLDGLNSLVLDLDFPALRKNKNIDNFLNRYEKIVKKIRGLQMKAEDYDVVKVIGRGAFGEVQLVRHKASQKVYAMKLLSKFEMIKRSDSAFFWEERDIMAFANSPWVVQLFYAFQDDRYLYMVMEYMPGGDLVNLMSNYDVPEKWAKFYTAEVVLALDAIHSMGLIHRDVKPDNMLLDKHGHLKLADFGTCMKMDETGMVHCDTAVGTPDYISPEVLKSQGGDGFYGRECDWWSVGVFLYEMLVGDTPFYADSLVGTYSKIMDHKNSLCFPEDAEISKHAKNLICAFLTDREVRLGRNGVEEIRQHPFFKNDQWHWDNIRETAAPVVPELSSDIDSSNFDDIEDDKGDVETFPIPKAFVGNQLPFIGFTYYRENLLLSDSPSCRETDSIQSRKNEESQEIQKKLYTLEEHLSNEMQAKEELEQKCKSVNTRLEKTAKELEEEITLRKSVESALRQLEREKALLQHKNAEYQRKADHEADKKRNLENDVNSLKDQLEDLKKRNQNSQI
Method in brief: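 His6-tagged human ROCK II (residues 11-552) phosphorylated a fluorescein-labelled peptide for 60 min at 32° C in Tris-HCl pH 7.4 with MgCl2, DTT and BSA, using 3 μM peptide and 120 μM ATP as diluted stocks. EDTA-stopped; phosphopeptide separated and detected by Caliper mobility shift; IC50 determined.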

recombinant human PKA = molecular target: T2, recombinant human PKA (Homo sapiens, UniProt P17612); test: Determination of Protein Kinase A inhibition (Caliper peptide phosphorylation assay); conditions: recombinant human PKA versus ROCK II
T2 construct: Active recombinant human PKA (residues 1-351, N-terminal His-tag); His-tag (N); purchased Invitrogen, Karlsruhe, Germany
Method in brief: (§1)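 Full-length His-tagged PKG1-beta (150 ng/ml working) or His-tagged PKA residues 1-351 (30 ng/ml working) was mixed with compound in pH 7.4 Tris/MgCl2/DTT buffer. Fluorescein-peptide substrate and ATP (3 μM and 120 μM working) were then added for 60 min at 32 °C before an EDTA stop. Phosphopeptide was separated electrophoretically on a Caliper instrument to derive IC50.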

[2] = molecular target: T3, recombinant human PKG1-beta (Homo sapiens, UniProt Q13976); test: Determination of Protein Kinase G inhibition (Caliper peptide phosphorylation assay); conditions: recombinant human PKG1-beta versus ROCK II
T3 construct: Active recombinant human PKG1-beta (full-length, with N-terminal His-tag); His-tag (N); purchased Millipore GmbH, Schwalbach, Germany
T3 sequence (Q13976 1-686 isoform Q13976-2): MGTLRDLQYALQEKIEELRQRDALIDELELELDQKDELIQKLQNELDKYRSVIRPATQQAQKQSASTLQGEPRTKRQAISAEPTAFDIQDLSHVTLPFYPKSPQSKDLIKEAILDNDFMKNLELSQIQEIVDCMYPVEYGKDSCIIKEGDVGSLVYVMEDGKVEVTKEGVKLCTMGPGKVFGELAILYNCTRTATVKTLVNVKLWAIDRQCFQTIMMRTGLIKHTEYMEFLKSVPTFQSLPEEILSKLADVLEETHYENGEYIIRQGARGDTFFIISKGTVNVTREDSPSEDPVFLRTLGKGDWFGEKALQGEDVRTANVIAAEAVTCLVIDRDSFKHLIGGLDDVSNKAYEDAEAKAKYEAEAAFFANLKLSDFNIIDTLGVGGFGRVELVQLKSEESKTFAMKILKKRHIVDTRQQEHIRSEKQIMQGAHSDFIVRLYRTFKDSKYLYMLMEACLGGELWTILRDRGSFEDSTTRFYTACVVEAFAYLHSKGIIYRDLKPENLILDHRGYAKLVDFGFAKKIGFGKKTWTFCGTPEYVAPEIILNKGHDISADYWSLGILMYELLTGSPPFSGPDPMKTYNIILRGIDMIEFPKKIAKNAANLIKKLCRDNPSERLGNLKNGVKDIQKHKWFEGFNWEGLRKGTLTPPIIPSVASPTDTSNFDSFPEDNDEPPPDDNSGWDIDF
Method in brief: as §1

SMILES	pIC50 [1]	Selectivity against PKA (recombinant human PKA)	Selectivity against PKG [2]	IC50 [1] [nM]
CCC(N)[C@]1(c2cccc(S(C)(=O)=O)c2)CC[C@H](Oc2cc3cc[nH]c(=O)c3cc2Cl)CC1 (stereo partly drawn) [Example 99, cis-6-[4-(1-Amino-propyl)-4-(3-methanesulfonyl-phenyl)-cyclohexyloxy]-7-chloro-2H-isoquinolin-1-one]	+++++++ (8.0≦pIC50)	>1000	>100	–
CCC(N)[C@]1(c2ccc(F)cc2F)CC[C@H](Oc2cc3cc[nH]c(=O)c3cc2Cl)CC1 (stereo partly drawn) [Example 56, cis-6-[4-(1-Amino-propyl)-4-(2,4-difluoro-phenyl)-cyclohexyloxy]-7-chloro-2H-isoquinolin-1-one]	+++++++ (8.0≦pIC50)	>1000	>300	–
CCC(N)[C@]1(c2ccccc2)CC[C@H](Oc2cc3cc[nH]c(=O)c3cc2C)CC1 (stereo partly drawn) [Example 11, cis-6-[4-(1-Amino-propyl)-4-phenyl-cyclohexyloxy]-7-methyl-2H-iso quinolin-1-one]	++++++ (7.0≦pIC50<8.0)	>300	>10	–
CCC(N)[C@]1(c2ccccc2)CC[C@H](Oc2cc3cc[nH]c(=O)c3cc2Cl)CC1 (stereo partly drawn) [Example 3, cis-6-{[4-(1-aminopropyl)-4-phenylcyclohexyl]oxy}-7-chloro-2H-isoquinolin-1-one]	+++++++ (8.0≦pIC50)	>1000	>300	–
NC1([C@]2(c3ccccc3)CC[C@H](Oc3cc4cc[nH]c(=O)c4cc3Cl)CC2)CC1 [Example 2, cis-6-[4-(1-Amino-cyclopropyl)-4-phenyl-cyclohexyloxy]-7-chloro-2H-isoquinolin-1-one]	+++++++ (8.0≦pIC50)	>1000	>1000	–
CCC(N)[C@@]1(c2ccccc2)C[C@@H]2C[C@H]1CC2Oc1cc2cc[nH]c(=O)c2cc1Cl (stereo partly drawn) [Example 100, 6-[(1S,4S,5S)-5-(1-Amino-propyl)-5-phenyl-bicyclo[2.2.1]hept-2-yloxy]-7-chloro-2H-isoquinolin-1-one]	+++++++ (8.0≦pIC50)	>1000	>1000	–
CCC(N)[C@]1(c2ccc(F)c(OC)c2)CC[C@H](Oc2cc3cc[nH]c(=O)c3cc2Cl)CC1 (stereo partly drawn) [Example 62, cis-6-[4-(1-Amino-propyl)-4-(4-fluoro-3-methoxy-phenyl)-cyclohexyloxy]-7-chloro-2H-iso quinolin-1-one]	+++++++ (8.0≦pIC50)	>1000	>300	–
CCOc1cccc([C@]2(C(N)CC)CC[C@@H](Oc3cc4cc[nH]c(=O)c4cc3Cl)CC2)c1 (stereo partly drawn) [Example 63, cis-6-[4-(1-Amino-propyl)-4-(3-ethoxy-phenyl)-cyclohexyloxy]-7-chloro-2H-isoquinolin-1-one]	+++++++ (8.0≦pIC50)	>1000	>300	–
COc1ccc(C(N)[C@H]2CC[C@@H](Oc3cc4cc[nH]c(=O)c4cc3Cl)CC2)cc1 (single isomer, unassigned) [Example 35, 6-{4-[Amino-(4-methoxy-phenyl)-methyl]-cyclohexyloxy}-7-chloro-2H-isoquinolin-1-one]	–	>1000	>100	≤ 10
CCC(N)[C@]1(c2ccccc2)CC[C@H](Oc2c(F)cc3c(=O)[nH]ccc3c2C)CC1 (stereo partly drawn) [Example 88, cis-6-[4-(1-Amino-propyl)-4-phenyl-cyclohexyloxy]-7-fluoro-5-methyl-2H-isoquinolin-1-one]	+++++ (6.0≦pIC50<7.0)	>10	>10	–
CCCC(N)[C@]1(c2ccccc2)CC[C@@H](Oc2cc3cc[nH]c(=O)c3cc2Cl)CC1 (stereo partly drawn) [Example 14, trans-6-[4-(1-Amino-butyl)-4-phenyl-cyclohexyloxy]-7-chloro-2H-isoquinolin-1-one]	+++++ (6.0≦pIC50<7.0)	>100	>100	–
NC(c1ccccc1)C1(c2ccccc2)CCC(Oc2cc3cc[nH]c(=O)c3cc2Cl)CC1 (single isomer, unassigned) [Example 42]	–	>300	>300	10 to 100
CCC(N)[C@]1(c2cccc(C(F)(F)F)c2)CC[C@H](Oc2cc3cc[nH]c(=O)c3cc2Cl)CC1 (stereo partly drawn) [Example 83, cis-6-[4-(1-Amino-propyl)-4-(3-trifluoromethyl-phenyl)-cyclohexyloxy]-7-chloro-2H-isoquinolin-1-one]	+++++ (6.0≦pIC50<7.0)	>100	>10	–
CCC(N)[C@]1(c2ccc(OC(F)(F)F)cc2)CC[C@H](Oc2cc3cc[nH]c(=O)c3cc2Cl)CC1 (stereo partly drawn) [Example 70, cis-6-[4-(1-Amino-propyl)-4-(4-trifluoro-methoxy-phenyl)-cyclohexyloxy]-7-chloro-2H-isoquinolin-1-one]	+++++++ (8.0≦pIC50)	>1000	>1000	–
CCC(N)[C@]1(c2ccccc2C)CC[C@H](Oc2cc3cc[nH]c(=O)c3cc2Cl)CC1 (stereo partly drawn) [Example 60, cis-6-[4-(1-Amino-propyl)-4-o-tolyl-cyclohexyloxy]-7-chloro-2H-isoquinolin-1-one]	+++++++ (8.0≦pIC50)	>1000	>100	–
NC(c1ccc(F)cc1)C1CCC(Oc2cc3cc[nH]c(=O)c3cc2Cl)CC1 (single isomer, unassigned) [Example 37, 6-{4-[Amino-(4-fluoro-phenyl)-methyl]-cyclohexyloxy}-7-chloro-2H-isoquinolin-1-one]	–	>1000	>300	≤ 10
NC(C1CC1)[C@]1(c2ccccc2)CC[C@H](Oc2cc3cc[nH]c(=O)c3cc2Cl)CC1 (stereo partly drawn) [Example 26]	+++++++ (8.0≦pIC50)	>1000	>300	–
COc1ccc(C(N)[C@H]2CC[C@@H](Oc3cc4cc[nH]c(=O)c4cc3Cl)CC2)cc1 (single isomer, unassigned) [Example 36, 6-{4-[Amino-(4-methoxy-phenyl)-methyl]-cyclohexyloxy}-7-chloro-2H-isoquinolin-1-one]	–	>300	>300	10 to 100
Cc1ccc(C(N)C2CCC(Oc3cc4cc[nH]c(=O)c4cc3Cl)CC2)cc1 (single isomer, unassigned) [Example 39, 6-[4-(Amino-p-tolyl-methyl)-cyclohexyloxy]-7-chloro-2H-isoquinolin-1-one]	–	>100	>100	10 to 100
